Article doi:10.1101/580449v1 (biorxiv, 2019)

Experiments:
hCST = target: T1, hCST (Homo sapiens, UniProt P78382); test: GFP-thermal shift titration; assay type: binding
T1 sequence (P78382 1-337): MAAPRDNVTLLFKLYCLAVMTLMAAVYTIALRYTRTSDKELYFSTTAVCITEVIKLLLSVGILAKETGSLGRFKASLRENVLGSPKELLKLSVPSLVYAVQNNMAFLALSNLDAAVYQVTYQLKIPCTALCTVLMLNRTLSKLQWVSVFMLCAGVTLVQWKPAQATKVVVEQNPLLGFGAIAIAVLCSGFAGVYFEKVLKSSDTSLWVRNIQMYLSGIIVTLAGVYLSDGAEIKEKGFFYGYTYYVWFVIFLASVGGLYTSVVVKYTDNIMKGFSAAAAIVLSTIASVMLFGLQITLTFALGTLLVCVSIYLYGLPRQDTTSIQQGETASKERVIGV

[1] = target: T2, CSTZM (wildtype sequence) (Zea mays, UniProt B4FZ94); test: GFP-thermal shift titration; assay type: binding
T2 sequence (B4FZ94 1-322): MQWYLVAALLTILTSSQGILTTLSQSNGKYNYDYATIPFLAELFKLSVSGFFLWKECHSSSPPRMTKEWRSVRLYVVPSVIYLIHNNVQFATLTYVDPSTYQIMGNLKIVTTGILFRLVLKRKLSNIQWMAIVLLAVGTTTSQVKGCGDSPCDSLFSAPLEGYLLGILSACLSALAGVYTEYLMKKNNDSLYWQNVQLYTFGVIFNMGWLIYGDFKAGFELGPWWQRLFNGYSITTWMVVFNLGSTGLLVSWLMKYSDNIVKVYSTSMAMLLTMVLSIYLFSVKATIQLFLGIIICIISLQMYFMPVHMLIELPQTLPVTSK

| Kd (hCST) [µM] | Kd [1] [µM] | SMILES |
| --- | --- | --- |
| 1500 ± 300 | 3100 ± 200 | CC(=O)N[C@H]1[C@H]([C@H](O)[C@H](O)CO)O[C@](OP(=O)(O)OC[C@H]2O[C@@H](n3ccc(N)nc3=O)[C@H](O)[C@@H]2O)(C(=O)O)C[C@@H]1O [CMP-sialic acid] |
| 40 | 40 | Nc1ccn([C@@H]2O[C@H](COP(=O)(O)O)[C@@H](O)[C@H]2O)c(=O)n1 [CMP] |
